Measured values reported in ChEMBL document CHEMBL3822442, “Synthesis and Pharmacological Characterization of Novel Glucagon-like Peptide-2 (GLP-2) Analogues with Low Systemic Clearance” (J Med Chem, 2016).
Active and inactive are the calls of the source. The calls are words filed in the database; no cut-off is given here.

How the values were obtained:
[1] = biological target: Glucagon-like peptide 1 receptor (Homo sapiens, UniProt P43220); assay: Agonist activity at human GLP1R expressed in HEK293 cells after 5 hrs by luciferase reporter gene assay; assay type: cell-based
Chain of Glucagon-like peptide 1 receptor (P43220 whole entry): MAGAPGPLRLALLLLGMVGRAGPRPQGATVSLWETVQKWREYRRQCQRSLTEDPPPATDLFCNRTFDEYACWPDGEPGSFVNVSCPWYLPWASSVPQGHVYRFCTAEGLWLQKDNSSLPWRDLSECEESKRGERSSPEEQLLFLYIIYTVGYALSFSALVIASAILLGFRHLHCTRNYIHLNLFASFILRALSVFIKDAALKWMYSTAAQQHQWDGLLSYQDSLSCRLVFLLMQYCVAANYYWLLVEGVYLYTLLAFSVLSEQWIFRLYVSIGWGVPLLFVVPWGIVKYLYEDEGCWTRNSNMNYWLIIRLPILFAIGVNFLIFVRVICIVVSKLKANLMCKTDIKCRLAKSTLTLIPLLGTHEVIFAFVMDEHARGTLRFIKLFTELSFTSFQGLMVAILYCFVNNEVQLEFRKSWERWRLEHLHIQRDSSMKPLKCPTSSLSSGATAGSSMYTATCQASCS

[2] = biological target: T1, Glucagon-like peptide 2 receptor (Homo sapiens, UniProt O95838); assay: Agonist activity at human GLP2R expressed in HEK293 cells after 5 hrs by luciferase reporter gene assay; assay type: cell-based
T1 sequence (O95838 whole entry): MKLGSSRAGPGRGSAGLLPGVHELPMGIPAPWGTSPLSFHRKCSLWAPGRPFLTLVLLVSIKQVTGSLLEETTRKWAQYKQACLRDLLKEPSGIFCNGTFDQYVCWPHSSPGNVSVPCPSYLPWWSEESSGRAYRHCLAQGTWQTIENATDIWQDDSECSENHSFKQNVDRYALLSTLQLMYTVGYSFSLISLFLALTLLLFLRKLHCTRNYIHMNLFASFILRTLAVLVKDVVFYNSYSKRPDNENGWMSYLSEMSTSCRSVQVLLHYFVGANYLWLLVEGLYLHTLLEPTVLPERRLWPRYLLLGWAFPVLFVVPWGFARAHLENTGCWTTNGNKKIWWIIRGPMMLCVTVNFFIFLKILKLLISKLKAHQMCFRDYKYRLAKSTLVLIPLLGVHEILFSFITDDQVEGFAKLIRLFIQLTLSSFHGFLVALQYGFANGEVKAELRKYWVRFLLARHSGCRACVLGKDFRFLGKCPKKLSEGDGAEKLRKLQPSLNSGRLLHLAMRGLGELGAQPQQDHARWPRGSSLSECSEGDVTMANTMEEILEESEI

[3] = test system: HEK293; assay: Selectivity ratio of EC50 for human GLP1R expressed in HEK293 cells to EC50 for human GLP2R expressed in HEK293; assay type: cell-based
[4] = biological target: T2, Glucagon-like peptide 2 receptor (Homo sapiens) (UniProt O95838); assay: Potency index, ratio of compound EC50 to compound 2 EC50 for human GLP2R expressed in HEK293 cells; assay type: cell-based
T2 sequence (whole entry): T1 sequence (O95838 whole entry)

[5] = biological target: Glucagon receptor (Homo sapiens) (UniProt P47871); assay: Agonist activity at human GCGR expressed in HEK293 cells after 5 hrs by luciferase reporter gene assay; assay type: cell-based
Chain of Glucagon receptor (Homo sapiens) (P47871 whole entry): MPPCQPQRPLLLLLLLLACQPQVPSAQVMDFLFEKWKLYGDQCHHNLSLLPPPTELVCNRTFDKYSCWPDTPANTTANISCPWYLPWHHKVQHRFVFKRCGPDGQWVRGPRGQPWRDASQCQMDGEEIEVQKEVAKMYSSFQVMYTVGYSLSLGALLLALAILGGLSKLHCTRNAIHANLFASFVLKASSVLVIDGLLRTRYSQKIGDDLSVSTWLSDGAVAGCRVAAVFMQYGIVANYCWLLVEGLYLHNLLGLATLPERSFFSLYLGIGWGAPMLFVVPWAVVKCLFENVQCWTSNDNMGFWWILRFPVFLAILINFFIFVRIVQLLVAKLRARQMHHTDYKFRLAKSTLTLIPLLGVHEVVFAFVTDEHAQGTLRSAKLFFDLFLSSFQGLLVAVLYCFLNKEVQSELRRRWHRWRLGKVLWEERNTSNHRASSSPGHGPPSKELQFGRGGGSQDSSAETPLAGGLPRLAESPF

[6] = Systemic clearance in Sprague-Dawley rat at 0.2 mg/kg, iv through cassette dosing measured up to 300 mins by LC/MS/MS analysis; assay type: ADME, organism-based; details: in vivo

| Compound | EC50 [1] | EC50 [2] | Ratio EC50 [3] | Ratio EC50 [4] | Activity [5] | clearance [6] |
| --- | --- | --- | --- | --- | --- | --- |
| CCCCC(NC(=O)[C@H](CCC(=O)O)NC(=O)[C@H](CC(=O)O)NC(=O)[C@H](CO)NC(=O)[C@H](Cc1ccccc1)NC(=O)[C@H](CO)NC(=O)CNC(=O)[C@H](CC(=O)O)NC(=O)CNC(=O)[C@@H](N)Cc1cnc[nH]1)C(=O)N[C@@H](CC(N)=O)C(=O)N[C@H](C(=O)N[C@H](C(=O)N[C@@H](CC(C)C)C(=O)N[C@@H](CC(=O)O)C(=O)N[C@@H](CC(N)=O)C(=O)N[C@H](CC(C)C)C(=O)N[C@@H](C)C(=O)N[C@@H](C)C(=O)N[C@@H](CCCNC(=N)N)C(=O)N[C@@H](CC(=O)O)C(=O)N[C@@H](Cc1ccccc1)C(=O)N[C@H](C(=O)N[C@@H](CC(N)=O)C(=O)N[C@@H](Cc1c[nH]c2ccccc12)C(=O)N[C@@H](CC(C)C)C(=O)N[C@H](C(=O)N[C@@H](CCC(N)=O)C(=O)N[C@H](C(=O)N[C@@H](CCCCN)C(N)=O)[C@@H](C)O)[C@@H](C)CC)[C@@H](C)CC)[C@@H](C)CC)[C@@H](C)O (some centres undefined) | > 1000 nM | 2.6 nM | > 380 | 12 | inactive | – |
| H-HGDGSFSDEMNTILDNLAARDFINWLIQ-NH2 | > 1000 nM | 1.1 nM | > 900 | 12 | – | – |
| H-HGDGSFSDEMNTILDNLAARDFINWLIQTKI-NH2 | > 1000 nM | 0.48 nM | > 2000 | 5.3 | – | – |
| CCCCC(NC(=O)[C@H](CCC(=O)O)NC(=O)[C@H](CC(=O)O)NC(=O)[C@H](CO)NC(=O)[C@H](Cc1ccccc1)NC(=O)[C@H](CO)NC(=O)CNC(=O)[C@H](CC(=O)O)NC(=O)CNC(=O)[C@@H](N)Cc1cnc[nH]1)C(=O)N[C@@H](CC(N)=O)C(=O)N[C@H](C(=O)N[C@H](C(=O)N[C@@H](CC(C)C)C(=O)N[C@@H](CC(=O)O)C(=O)N[C@@H](CC(N)=O)C(=O)N[C@@H](CC(C)C)C(=O)N[C@@H](C)C(=O)N[C@@H](C)C(=O)N[C@@H](CCCNC(=N)N)C(=O)N[C@@H](CC(=O)O)C(=O)N[C@@H](Cc1ccccc1)C(=O)N[C@H](C(=O)N[C@@H](CC(N)=O)C(=O)N[C@H](Cc1c[nH]c2ccccc12)C(=O)N[C@@H](CC(C)C)C(=O)N[C@H](C(=O)N[C@@H](CCC(N)=O)C(=O)N[C@H](C(=O)N[C@@H](CCCCN)C(N)=O)[C@@H](C)O)[C@@H](C)CC)[C@@H](C)CC)[C@@H](C)CC)[C@@H](C)O (some centres undefined) | > 1000 nM | > 30 nM | – | > 130 | inactive | – |
| CCCCC(NC(=O)[C@H](CCC(=O)O)NC(=O)[C@H](CC(=O)O)NC(=O)[C@H](CO)NC(=O)[C@H](Cc1ccccc1)NC(=O)[C@H](CO)NC(=O)CNC(=O)[C@H](CC(=O)O)NC(=O)CNC(=O)[C@@H](N)Cc1cnc[nH]1)C(=O)N[C@H](CCN)C(=O)N[C@H](C(=O)N[C@H](C(=O)N[C@@H](CC(C)C)C(=O)N[C@@H](CC(=O)O)C(=O)N[C@@H](CC(N)=O)C(=O)N[C@@H](CC(C)C)C(=O)N[C@@H](C)C(=O)N[C@@H](C)C(=O)N[C@@H](CCCNC(=N)N)C(=O)N[C@@H](CC(=O)O)C(=O)N[C@@H](Cc1ccccc1)C(=O)N[C@H](C(=O)N[C@@H](CC(N)=O)C(=O)N[C@@H](Cc1c[nH]c2ccccc12)C(=O)N[C@@H](CC(C)C)C(=O)N[C@H](C(=O)N[C@@H](CCC(N)=O)C(=O)N[C@H](C(=O)N[C@@H](CCCCN)C(N)=O)[C@@H](C)O)[C@@H](C)CC)[C@@H](C)CC)[C@@H](C)CC)[C@@H](C)O (some centres undefined) | > 1000 nM | 0.66 nM | > 1500 | – | inactive | 9.7 mL/min/kg |
| H-HGDGSFSDEMNTILDNLAARDFINWLIQT-NH2 | > 1000 nM | 0.63 nM | > 1500 | 7 | – | – |
| H-HGDGSFSDEMNTILDNLAARDFINW-NH2 | > 1000 nM | > 30 nM | – | > 330 | – | – |
| H-HGDGSFSDEMNTILDNLAARDFINWLIQTKIT-NH2 | > 1000 nM | 0.29 nM | > 3400 | 3.2 | – | – |
| CCCCC(NC(=O)[C@H](CCC(=O)O)NC(=O)[C@H](CC(=O)O)NC(=O)[C@H](CO)NC(=O)[C@H](Cc1ccccc1)NC(=O)[C@H](CO)NC(=O)CNC(=O)[C@H](CC(=O)O)NC(=O)CNC(=O)[C@@H](N)Cc1cnc[nH]1)C(=O)N[C@H](Cc1cnc[nH]1)C(=O)N[C@H](C(=O)N[C@H](C(=O)N[C@@H](CC(C)C)C(=O)N[C@@H](CC(=O)O)C(=O)N[C@@H](CC(N)=O)C(=O)N[C@@H](CC(C)C)C(=O)N[C@@H](C)C(=O)N[C@@H](C)C(=O)N[C@@H](CCCNC(=N)N)C(=O)N[C@@H](CC(=O)O)C(=O)N[C@@H](Cc1ccccc1)C(=O)N[C@H](C(=O)N[C@@H](CC(N)=O)C(=O)N[C@@H](Cc1c[nH]c2ccccc12)C(=O)N[C@@H](CC(C)C)C(=O)N[C@H](C(=O)N[C@@H](CCC(N)=O)C(=O)N[C@H](C(=O)N[C@@H](CCCCN)C(N)=O)[C@@H](C)O)[C@@H](C)CC)[C@@H](C)CC)[C@@H](C)CC)[C@@H](C)O (some centres undefined) | > 1000 nM | 0.2 nM | > 5000 | – | inactive | 0.73 mL/min/kg |
| CCCCC(NC(=O)[C@H](CCC(=O)O)NC(=O)[C@H](CC(=O)O)NC(=O)[C@H](CO)NC(=O)[C@H](Cc1ccccc1)NC(=O)[C@H](CO)NC(=O)CNC(=O)[C@H](CC(=O)O)NC(=O)CNC(=O)[C@@H](N)Cc1cnc[nH]1)C(=O)N[C@H](Cc1ccccc1)C(=O)N[C@H](C(=O)N[C@H](C(=O)N[C@@H](CC(C)C)C(=O)N[C@@H](CC(=O)O)C(=O)N[C@@H](Cc1ccc(O)cc1)C(=O)N[C@@H](CC(C)C)C(=O)N[C@@H](C)C(=O)N[C@@H](C)C(=O)N[C@@H](CCCNC(=N)N)C(=O)N[C@@H](CC(=O)O)C(=O)N[C@@H](Cc1ccccc1)C(=O)N[C@H](C(=O)N[C@@H](CC(N)=O)C(=O)N[C@@H](Cc1c[nH]c2ccccc12)C(=O)N[C@@H](CC(C)C)C(=O)N[C@H](C(=O)N[C@@H](CCC(N)=O)C(=O)N[C@H](C(=O)N[C@@H](CCCCN)C(N)=O)[C@@H](C)O)[C@@H](C)CC)[C@@H](C)CC)[C@@H](C)CC)[C@@H](C)O (some centres undefined) | 90 nM | 0.07 nM | 1200 | – | – | 0.48 mL/min/kg |
| CCCCC(NC(=O)[C@H](CCC(=O)O)NC(=O)[C@H](CC(=O)O)NC(=O)[C@H](CO)NC(=O)[C@H](Cc1ccccc1)NC(=O)[C@H](CO)NC(=O)CNC(=O)[C@H](CC(=O)O)NC(=O)CNC(=O)[C@@H](N)Cc1cnc[nH]1)C(=O)N[C@H](Cc1ccccc1)C(=O)N[C@H](C(=O)N[C@H](C(=O)N[C@@H](CC(C)C)C(=O)N[C@@H](CC(=O)O)C(=O)N[C@@H](CC(C)C)C(=O)N[C@@H](CC(C)C)C(=O)N[C@@H](C)C(=O)N[C@@H](C)C(=O)N[C@@H](CCCNC(=N)N)C(=O)N[C@@H](CC(=O)O)C(=O)N[C@@H](Cc1ccccc1)C(=O)N[C@H](C(=O)N[C@@H](CC(N)=O)C(=O)N[C@@H](Cc1c[nH]c2ccccc12)C(=O)N[C@@H](CC(C)C)C(=O)N[C@H](C(=O)N[C@@H](CCC(N)=O)C(=O)N[C@H](C(=O)N[C@@H](CCCCN)C(=O)N[C@H](C(=O)N[C@H](C(=O)N[C@@H](CC(=O)O)C(=O)NCc1ccccc1)[C@@H](C)O)[C@@H](C)CC)[C@@H](C)O)[C@@H](C)CC)[C@@H](C)CC)[C@@H](C)CC)[C@@H](C)O (some centres undefined) | > 1000 nM | 0.1 nM | > 10000 | – | – | 0.1 mL/min/kg |
| CCCCC(NC(=O)[C@H](CCC(=O)O)NC(=O)[C@H](CC(=O)O)NC(=O)[C@H](CO)NC(=O)[C@H](Cc1ccccc1)NC(=O)[C@H](CO)NC(=O)CNC(=O)[C@H](CC(=O)O)NC(=O)CNC(=O)[C@@H](N)Cc1cnc[nH]1)C(=O)N[C@H](Cc1ccccc1)C(=O)N[C@H](C(=O)N[C@H](C(=O)N[C@@H](CC(C)C)C(=O)N[C@@H](CC(=O)O)C(=O)N[C@@H](Cc1ccccc1)C(=O)N[C@@H](CC(C)C)C(=O)N[C@@H](C)C(=O)N[C@@H](C)C(=O)N[C@@H](CCCNC(=N)N)C(=O)N[C@@H](CC(=O)O)C(=O)N[C@@H](Cc1ccccc1)C(=O)N[C@H](C(=O)N[C@@H](CC(N)=O)C(=O)N[C@@H](Cc1c[nH]c2ccccc12)C(=O)N[C@@H](CC(C)C)C(=O)N[C@H](C(=O)N[C@@H](CCC(N)=O)C(=O)N[C@H](C(=O)N[C@@H](CCCCN)C(N)=O)[C@@H](C)O)[C@@H](C)CC)[C@@H](C)CC)[C@@H](C)CC)[C@@H](C)O (some centres undefined) | > 1000 nM | 0.09 nM | > 11000 | – | – | 0.3 mL/min/kg |
| H-HGDGSFSDEMNTILDNLAARDFINWLI-NH2 | > 1000 nM | 1.1 nM | > 900 | 12 | – | – |
